Patent US7964616B2, “Compounds 679” (AstraZeneca AB, priority 2007, dated 2011)

What was measured:
[1] = molecular target: T1, ion channel subunit encoded by the human ether-a-go-go-related gene (hERG) (Homo sapiens, UniProt Q12809); assay: hERG binding protocol (radioligand competition, HEK cell membranes expressing hERG); conditions: for IC50: a 'less than' figure indicates <50% inhibition at the quoted concentration, the highest tested, read-out: hERG pIC50 (converted); for P2X7:hERG Ratio: ratio of P2X7:hERG affinity
T1 construct: expressed in transfected cells; host or cells: HEK (human embryonic kidney) cells, membrane preparation
Protocol: The hERG assay was performed according to the procedure described in WO2005/037052. The affinity (pIC50) of compounds for the ion channel subunit encoded by the human ether-a-go-go-related gene (hERG) gene was determined by competition binding of radioligand 3,7-Bis[2-(4-nitro[3,5-^3H]phenyl)ethyl]-3,7-diazabicyclo[3.3.1]nonane to HEK (human embryonic kidney) cell membranes expressing hERG, in a filter wash format.
Membranes were incubated for 3 hours at room temperature with serial dilutions of the test compounds, radioligand 3,7-Bis[2-(4-nitro[3,5-^3H]phenyl)ethyl]-3,7-diazabicyclo[3.3.1]nonane at 1 nM final concentration, and assay buffer (10 mM HEPES, 130 mM NaCl, 5 mM KCl, 1 mM EGTA, 0.8 mM MgCl2, pH 7.4). The assay was conducted in a final volume of 200 μL, in the presence of 1% (v/v) dimethyl sulphoxide. Non-specific binding was determined by measuring the binding of 3,7-Bis[2-(4-nitro[3,5-^3H]phenyl)ethyl]-3,7-diazabicyclo[3.3.1]nonane in the presence of 10 […]. During this incubation GF/B filter plates were immersed in coating solution 0.3% (v/v) Polyethylenimine and 0.2% (w/v) BSA). Following incubation assay plates were harvested onto precoated GF/B filter plates using a Tomtec harvester.
The pIC50, defined as the negative logarithm of the concentration of compound required for 50% reduction in 3,7-Bis[2-(4-nitro[3,5-^3H]phenyl)ethyl]-3,7-diazabicyclo[3.3.1]nonane binding, was determined. A ‘less than’ figure indicates <50% inhibition at the quoted concentration, this being the highest concentration tested.

P2X7 receptor = molecular target: T2, P2X7 receptor (Homo sapiens, UniProt Q99572); assay: P2X7 assay (bbATP-induced ethidium bromide fluorescence in THP-1 cells); assay type: cell-based; conditions: 10^-5M bbATP agonist, read-out: P2X7 pIC50 (converted)
T2 construct: 200 μl of a suspension of THP-1 cells; endogenous in cells; host or cells: THP-1 cells
T2 sequence (Q99572 1-595): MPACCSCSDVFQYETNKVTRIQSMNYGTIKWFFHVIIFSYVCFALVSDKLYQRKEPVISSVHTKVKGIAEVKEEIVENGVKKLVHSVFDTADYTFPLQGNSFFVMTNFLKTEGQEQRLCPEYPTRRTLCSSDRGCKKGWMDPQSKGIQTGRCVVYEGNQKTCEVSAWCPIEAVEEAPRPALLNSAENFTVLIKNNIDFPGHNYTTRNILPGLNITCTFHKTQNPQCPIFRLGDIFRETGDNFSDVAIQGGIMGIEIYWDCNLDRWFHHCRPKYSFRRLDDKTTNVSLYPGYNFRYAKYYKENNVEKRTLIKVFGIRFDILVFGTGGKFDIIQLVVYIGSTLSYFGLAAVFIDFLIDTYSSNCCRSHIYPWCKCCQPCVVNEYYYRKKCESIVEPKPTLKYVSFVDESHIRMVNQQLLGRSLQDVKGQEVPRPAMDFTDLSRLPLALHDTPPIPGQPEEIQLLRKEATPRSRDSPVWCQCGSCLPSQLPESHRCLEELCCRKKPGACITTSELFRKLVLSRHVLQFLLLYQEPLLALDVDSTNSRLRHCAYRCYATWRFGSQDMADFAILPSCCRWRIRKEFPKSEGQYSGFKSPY
Text: Certain compounds such as benzoylbenzoyl adenosine triphosphate (bbATP) are known to be agonists of the P2X7 receptor, effecting the formation of pores in the plasma membrane (Drug Development Research (1996), 37(3), p. 126). Consequently, when the receptor is activated using bbATP in the presence of ethidium bromide (a fluorescent DNA probe), an increase in the fluorescence of intracellular DNA-bound ethidium bromide is observed. The increase in fluorescence can be used as a measure of P2X7 receptor activation and therefore to quantify the effect of a compound on the P2X7 receptor.
In this manner, each of the title compounds of the Examples was tested for antagonist activity at the P2X7 receptor. Thus, the test was performed in 96-well flat bottomed microtitre plates, the wells being filled with 250 μl of test solution comprising 200 μl of a suspension of THP-1 cells (2.5×10^6 cells/ml) containing 10^−4M ethidium bromide, 25 μl of a high potassium buffer solution containing 10^−5M bbATP, and 25 μl of the high potassium buffer solution containing concentrations of test compound typically from 30 μM-0.001 μM. The plate was covered with a plastics sheet and incubated at 37° C. for one hour. The plate was then read in a Perkin-Elmer fluorescent plate reader, excitation 520 nm, emission 595 nm, slit widths: Ex 15 nm, Em 20 nm. For the purposes of comparison, bbATP (a P2X7 receptor agonist) and pyridoxal 5-phosphate (a P2X7 receptor antagonist) were used separately in the test as controls. From the readings obtained, a pIC50 figure was calculated for each test compound, this figure being the negative logarithm of the concentration of test compound necessary to reduce the bbATP agonist activity by 50%.

Bioavailability - Rat PK = assay type: in vivo, male Sprague Dawley rats; conditions: male, Sprague Dawley, plasma, po 5 mg/kg vs iv 3 mg/kg
Protocol: Pharmacokinetic parameters and concepts are used in DMPK to describe the fate of a compound in the body. The distribution and excretion of a compound are reflected in the plasma concentration-time profile. By appropriate dosing, sampling and analysis key parameters (clearance, volume, half-life, bioavailability etc.) can be determined.
Test compounds were typically dosed intravenously to the right lateral tail vein of male Sprague Dawley rats at a dose level of 3 mg/kg (1 ml/kg) in DMA:water (40:60 v/v). Rats were dosed orally at a dose level of 5 mg/kg (2 ml/kg) in 0.5% hydroxypropylmethylcellulose (HPMC, w/v)/0.1% Tween 80 (v/v) in water). […]
To determine the plasma levels of test compound, 50 μl of methanol was added to 50 μl of each of the test samples, whilst 40 μl of methanol was added to the 50 μl aliquots of control plasma containing 10 μl spikes of authentic standard used to create a calibration line and QCs. […] The resultant supernatants were analysed by HPLC-MSMS after an appropriate, selective and sensitive method had been created by optimizing both cone voltage and collision energy.
Pharmacokinetic parameters were derived from concentration-time using non-compartmental analysis in WinNonLin®. Bioavailability was calculated using the following equation F=AUCPO*DoseIV/AUCIV*DosePO.

primary rat hepatocytes = assay: In vitro phospholipidosis protocol; assay type: cell-based, Han Wistar rats
Protocol: Assessment of a compounds potential to induce phospholipidosis was determined by an in vitro fluorescent assay which reports the accumulation of phospholipids in primary rat hepatocytes. Hepatocytes were isolated from Han Wistar rats by a 2-stage collagenase digest method. The hepatocytes were then plated on collagen coated 96-well plates in William's E medium. The cells were left to adhere for 1 hour then the media was replaced with a solution of 250 μg·ml^−1 collagen in Hepatozyme cell culture medium.
Cells were then cultured for 48 hours with the medium being changed at 24 hours. At 48 hours post isolation the medium was changed to Hepatozyme supplemented with the fluorescent phospholipid N-(6-tetramethylrhodaminethiocarbamoyl)-1,2-dihexadecanoyl-sn-glycero-3-phosphoethanolamine (DHPE-TRITC) (5 μg·ml^−1). At this time, test compounds were added to the hepatocytes at a range of concentrations in a serial dilution with a final concentration of 0.4% dimethylsulfoxide (used as solvent for test compounds). […]
Images of the hepatocytes were then acquired using an automated microscope platform (GE In Cell Analyser 3000). […] The quantified accumulation observed with test compounds was then normalised to a range of 0, representing the accumulation observed in cells exposed to vehicle only, and 1, representing cells exposed to 10 μM amiodarone. […]

T1 sequence (Q12809 whole entry): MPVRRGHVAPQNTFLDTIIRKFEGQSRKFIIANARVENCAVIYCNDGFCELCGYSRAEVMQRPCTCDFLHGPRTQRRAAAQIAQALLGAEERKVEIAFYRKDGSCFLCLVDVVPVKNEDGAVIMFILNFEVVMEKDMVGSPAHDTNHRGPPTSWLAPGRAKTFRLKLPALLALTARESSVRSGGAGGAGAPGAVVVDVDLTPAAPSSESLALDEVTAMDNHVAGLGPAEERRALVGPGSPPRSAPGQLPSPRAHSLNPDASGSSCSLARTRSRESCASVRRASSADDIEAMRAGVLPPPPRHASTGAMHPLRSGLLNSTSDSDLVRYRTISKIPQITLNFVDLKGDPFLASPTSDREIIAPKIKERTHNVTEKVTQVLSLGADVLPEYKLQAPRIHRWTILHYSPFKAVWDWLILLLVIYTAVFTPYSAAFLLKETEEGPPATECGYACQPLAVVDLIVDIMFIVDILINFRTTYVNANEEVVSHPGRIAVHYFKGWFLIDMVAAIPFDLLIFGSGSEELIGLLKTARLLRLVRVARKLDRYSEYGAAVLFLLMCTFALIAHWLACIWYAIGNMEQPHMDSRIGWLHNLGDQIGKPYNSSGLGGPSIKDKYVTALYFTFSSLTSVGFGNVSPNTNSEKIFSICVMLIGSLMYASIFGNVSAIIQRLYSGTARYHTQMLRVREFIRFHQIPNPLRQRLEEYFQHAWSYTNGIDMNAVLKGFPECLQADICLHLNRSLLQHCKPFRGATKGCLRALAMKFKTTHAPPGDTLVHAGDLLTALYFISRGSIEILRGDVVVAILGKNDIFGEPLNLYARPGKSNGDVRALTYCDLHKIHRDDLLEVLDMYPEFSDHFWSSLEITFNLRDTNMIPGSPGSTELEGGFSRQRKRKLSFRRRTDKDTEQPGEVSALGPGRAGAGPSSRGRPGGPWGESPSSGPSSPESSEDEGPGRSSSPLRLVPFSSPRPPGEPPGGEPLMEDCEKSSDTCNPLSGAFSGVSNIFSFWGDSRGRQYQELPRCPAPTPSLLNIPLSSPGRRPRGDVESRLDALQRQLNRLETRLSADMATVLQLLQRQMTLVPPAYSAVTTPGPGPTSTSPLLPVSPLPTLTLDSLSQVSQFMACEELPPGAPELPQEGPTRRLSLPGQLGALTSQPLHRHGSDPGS

Row | IC50 (P2X7 receptor) [nM] | melting point | bioavailability (Bioavailability - Rat PK) [%] | Compound | IC50 [1] [nM] | P2X7:hERG Ratio [1] | minimum toxic concentration (primary rat hepatocytes; lowest dose that caused >50% cell toxicity, primary rat hepatocytes) [µM] | phospholipid (DHPE-TRITC) accumulation (primary rat hepatocytes; maximum test concentration of 250 uM, normalised 0 = vehicle, 1 = 10 μM amiodarone)
1 | 7.94 | 222 °C | – | C[C@H]1CCC[C@@](O)(CNC(=O)c2c(Cl)ccc3nc(N4CC[C@H](O)C4)ccc23)C1 [Example 1, 6-Chloro-N-{[(1S,3S)-1-hydroxy-3-methylcyclohexyl]methyl}-2-[(3S)-3-hydroxypyrrolidin-1-yl]quinoline-5-carboxamide] | > 100000 | >10,000 | – | –
2 | 7.94 | 222 to 223 °C | 59 | C[C@H]1CCC[C@@](O)(CNC(=O)c2c(Cl)ccc3nc(N4CC[C@@H](O)C4)ccc23)C1 [Example 2, 6-Chloro-N-{[(1S,3S)-1-hydroxy-3-methylcyclohexyl]methyl}-2-[(3R)-3-hydroxypyrrolidin-1-yl]quinoline-5-carboxamide] | > 100000 | >10,000 | > 250 | no measurable accumulation

More lines, now with the values behind:

Row | Compound | IC50 (P2X7 receptor) [nM] | melting point | bioavailability (Bioavailability - Rat PK) [%] | IC50 [1] [nM] | P2X7:hERG Ratio [1] | minimum toxic concentration (primary rat hepatocytes; lowest dose that caused >50% cell toxicity, primary rat hepatocytes) [µM] | phospholipid (DHPE-TRITC) accumulation (primary rat hepatocytes; maximum test concentration of 250 uM, normalised 0 = vehicle, 1 = 10 μM amiodarone)
3 | C[C@H]1CCC[C@@](O)(CNC(=O)c2c(Cl)ccc3nc(N4CCC(C)(O)C4)ccc23)C1 (single isomer, unassigned) [Example 4 - isomer 2] | 10 | – | – | > 100000 | >10,000 | – | –
4 | C[C@H]1CCC[C@@](O)(CNC(=O)c2c(Cl)ccc3nc(N4CCC(O)CC4)ccc23)C1 [Example 3, 6-Chloro-N-{[(1S,3S)-1-hydroxy-3-methylcyclohexyl]methyl}-2-(4-hydroxypiperidin-1-yl)quinoline-5-carboxamide] | 7.94 | 120 °C (dec.) | – | > 100000 | >10,000 | – | –
5 | C[C@H]1CCC[C@@](O)(CNC(=O)c2c(Cl)ccc3nc(N4CCC(C)(O)C4)ccc23)C1 (stereo partly drawn) [Example 4, 6-Chloro-N-{[(1S,3S)-1-hydroxy-3-methylcyclohexyl]methyl}-2-(3-hydroxy-3-methylpyrrolidin-1-yl)quinoline-5-carboxamide] | – | 195 to 200 °C (dec.) | – | – | – | – | –
